Where two headings read alike, the source gives them in different places.
Experiments:
HepG2 = test: MTT antitumor assay, HepG2; settings: Homo sapiens, HepG2, read-out: IC50 (μM) HepG2
Procedure: (§2) The evaluation of the antitumour activity was performed using tetrazolium salt MTT (3–(4,5-dimethyl-2-thiazolyl)-2,5-diphenyl-2H-tetrazolium bromide) assay as reported[47–50].

Caco-2 = test: MTT antitumor assay, Caco-2; settings: Homo sapiens, Caco-2, read-out: IC50 (μM) Caco-2
Procedure: as §2

HCT-116 = test: MTT antitumor assay, HCT-116
Procedure: as §2

MCF-7 = test: MTT antitumor assay, MCF-7
Procedure: as §2

HER2 = target: T1, HER2 (Homo sapiens, UniProt P04626); test: Kinase inhibition assay (Kinase-Glo Plus), HER2; format: biochemical; settings: read-out: % inhibition of 10 μM HER2; 10 μM compound
T1 construct: purchased BPS Bioscience
Procedure: (§1) Luminescence signal was measured using a BioTek Synergy 2 microplate reader.

COX-1 = target: T2, COX-1 (Ovis aries, UniProt P05979); test: In vitro COX-1 enzyme inhibition assay (colorimetric kit)
T2 sequence (P05979 25-600): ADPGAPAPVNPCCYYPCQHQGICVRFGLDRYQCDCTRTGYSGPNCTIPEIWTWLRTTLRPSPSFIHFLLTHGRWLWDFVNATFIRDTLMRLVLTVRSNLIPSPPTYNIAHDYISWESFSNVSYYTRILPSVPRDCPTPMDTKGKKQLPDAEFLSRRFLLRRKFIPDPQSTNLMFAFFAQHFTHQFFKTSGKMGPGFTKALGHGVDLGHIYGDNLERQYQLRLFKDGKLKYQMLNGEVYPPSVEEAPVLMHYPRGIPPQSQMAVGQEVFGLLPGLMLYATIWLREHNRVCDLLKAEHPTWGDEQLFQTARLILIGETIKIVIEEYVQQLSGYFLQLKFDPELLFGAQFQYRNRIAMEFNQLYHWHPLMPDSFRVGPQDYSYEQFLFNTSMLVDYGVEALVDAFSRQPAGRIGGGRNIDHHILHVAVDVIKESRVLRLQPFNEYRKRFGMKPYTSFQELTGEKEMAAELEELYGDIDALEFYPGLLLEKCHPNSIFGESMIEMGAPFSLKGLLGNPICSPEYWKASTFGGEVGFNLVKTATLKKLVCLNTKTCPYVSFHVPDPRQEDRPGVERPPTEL
Procedure: (§3) IC50 (represented in μM) (The half-maximal inhibitor concentration) values were determined[56–59], and the SI values were calculated[51]^,[52]^,[55] as IC50 (COX-1)/IC50 (COX-2).

EGFR = target: T3, EGFR (Homo sapiens, UniProt P00533); test: Kinase inhibition assay (Kinase-Glo Plus), EGFR; format: biochemical; settings: read-out: % inhibition of 10 μM EGFR; 10 μM compound
T3 construct: purchased BPS Bioscience
Procedure: as §1

HER4 = target: T4, HER4 (Homo sapiens, UniProt Q15303); test: Kinase inhibition assay (Kinase-Glo Plus), HER4; format: biochemical; settings: read-out: % inhibition of 10 μM HER4; 10 μM compound
T4 construct: purchased BPS Bioscience
Procedure: as §1

COX-2 = target: T5, COX-2 (Ovis aries, UniProt P79208); test: In vitro COX-2 enzyme inhibition assay (colorimetric kit); settings: for SI, selectivity index (COX-1 IC50/COX-2 IC50): COX-2 selectivity over COX-1
T5 sequence (P79208 17-603): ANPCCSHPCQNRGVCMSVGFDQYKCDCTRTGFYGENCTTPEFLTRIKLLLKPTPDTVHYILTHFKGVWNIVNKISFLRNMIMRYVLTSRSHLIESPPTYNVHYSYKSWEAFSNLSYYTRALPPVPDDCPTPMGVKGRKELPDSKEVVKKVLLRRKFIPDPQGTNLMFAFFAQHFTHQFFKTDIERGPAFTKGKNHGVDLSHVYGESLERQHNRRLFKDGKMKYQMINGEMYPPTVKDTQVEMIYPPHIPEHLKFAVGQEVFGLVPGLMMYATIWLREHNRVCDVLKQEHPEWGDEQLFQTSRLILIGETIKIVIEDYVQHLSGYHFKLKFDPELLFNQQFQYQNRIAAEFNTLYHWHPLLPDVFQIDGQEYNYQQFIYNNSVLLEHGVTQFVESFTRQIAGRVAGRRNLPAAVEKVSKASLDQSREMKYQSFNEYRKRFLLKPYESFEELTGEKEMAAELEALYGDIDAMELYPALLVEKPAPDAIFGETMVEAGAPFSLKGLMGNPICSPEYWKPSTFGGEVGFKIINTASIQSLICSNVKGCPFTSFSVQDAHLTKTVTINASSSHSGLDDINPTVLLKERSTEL
Procedure: as §3

cSrc = target: T6, cSrc (Homo sapiens, UniProt P12931); test: Kinase inhibition assay (Kinase-Glo Plus), cSrc; format: biochemical; settings: for inhibition at 10 µM: read-out: % inhibition, 10 μM compound
T6 construct: purchased BPS Bioscience
Procedure: as §1

[1] = Homo sapiens, HCT-116, read-out: IC50 (μM) HCT-116, human colon cancer cell line, MTT, mean ± SD, n = 3
[2] = Homo sapiens, MCF7, read-out: IC50 (μM) MCF-7, human breast adenocarcinoma cell line, MTT, mean ± SD, n = 3
[3] = read-out: IC50 (μM) MCF-7, human breast adenocarcinoma cell line, MTT, mean ± SD, n = 3

T4 sequence (Q15303 26-1308): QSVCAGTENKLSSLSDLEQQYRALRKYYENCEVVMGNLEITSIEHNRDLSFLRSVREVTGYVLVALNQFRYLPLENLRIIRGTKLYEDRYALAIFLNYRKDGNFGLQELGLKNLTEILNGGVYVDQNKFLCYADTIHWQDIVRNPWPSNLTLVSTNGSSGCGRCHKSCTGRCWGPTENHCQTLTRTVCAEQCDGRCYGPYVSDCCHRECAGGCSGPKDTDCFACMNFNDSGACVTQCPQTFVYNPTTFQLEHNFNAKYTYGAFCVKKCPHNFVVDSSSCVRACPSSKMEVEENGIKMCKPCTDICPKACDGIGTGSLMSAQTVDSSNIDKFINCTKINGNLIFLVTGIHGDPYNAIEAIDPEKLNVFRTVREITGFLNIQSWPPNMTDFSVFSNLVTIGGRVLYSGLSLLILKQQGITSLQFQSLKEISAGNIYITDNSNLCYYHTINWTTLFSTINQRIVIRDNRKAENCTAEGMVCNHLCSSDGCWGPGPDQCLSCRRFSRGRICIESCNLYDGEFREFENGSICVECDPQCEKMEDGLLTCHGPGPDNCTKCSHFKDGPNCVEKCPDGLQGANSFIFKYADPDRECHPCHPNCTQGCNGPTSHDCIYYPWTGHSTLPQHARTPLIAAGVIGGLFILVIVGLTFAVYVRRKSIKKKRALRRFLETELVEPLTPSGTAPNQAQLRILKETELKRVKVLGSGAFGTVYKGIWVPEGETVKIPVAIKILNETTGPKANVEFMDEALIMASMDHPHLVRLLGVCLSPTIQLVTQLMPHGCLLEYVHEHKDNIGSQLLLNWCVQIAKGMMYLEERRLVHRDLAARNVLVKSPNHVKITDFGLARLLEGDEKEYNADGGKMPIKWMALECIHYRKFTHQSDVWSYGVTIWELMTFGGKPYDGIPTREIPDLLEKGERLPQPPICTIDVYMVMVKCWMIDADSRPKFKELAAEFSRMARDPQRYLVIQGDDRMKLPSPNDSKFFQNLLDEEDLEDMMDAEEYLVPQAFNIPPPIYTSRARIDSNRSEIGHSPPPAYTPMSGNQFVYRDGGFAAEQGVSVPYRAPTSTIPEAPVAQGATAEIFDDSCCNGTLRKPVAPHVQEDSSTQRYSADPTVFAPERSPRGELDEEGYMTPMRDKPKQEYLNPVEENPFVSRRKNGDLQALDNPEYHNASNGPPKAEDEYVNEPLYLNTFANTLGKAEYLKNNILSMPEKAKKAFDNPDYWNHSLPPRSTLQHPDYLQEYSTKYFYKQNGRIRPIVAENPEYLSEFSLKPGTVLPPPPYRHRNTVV
T1 sequence (P04626 23-1255): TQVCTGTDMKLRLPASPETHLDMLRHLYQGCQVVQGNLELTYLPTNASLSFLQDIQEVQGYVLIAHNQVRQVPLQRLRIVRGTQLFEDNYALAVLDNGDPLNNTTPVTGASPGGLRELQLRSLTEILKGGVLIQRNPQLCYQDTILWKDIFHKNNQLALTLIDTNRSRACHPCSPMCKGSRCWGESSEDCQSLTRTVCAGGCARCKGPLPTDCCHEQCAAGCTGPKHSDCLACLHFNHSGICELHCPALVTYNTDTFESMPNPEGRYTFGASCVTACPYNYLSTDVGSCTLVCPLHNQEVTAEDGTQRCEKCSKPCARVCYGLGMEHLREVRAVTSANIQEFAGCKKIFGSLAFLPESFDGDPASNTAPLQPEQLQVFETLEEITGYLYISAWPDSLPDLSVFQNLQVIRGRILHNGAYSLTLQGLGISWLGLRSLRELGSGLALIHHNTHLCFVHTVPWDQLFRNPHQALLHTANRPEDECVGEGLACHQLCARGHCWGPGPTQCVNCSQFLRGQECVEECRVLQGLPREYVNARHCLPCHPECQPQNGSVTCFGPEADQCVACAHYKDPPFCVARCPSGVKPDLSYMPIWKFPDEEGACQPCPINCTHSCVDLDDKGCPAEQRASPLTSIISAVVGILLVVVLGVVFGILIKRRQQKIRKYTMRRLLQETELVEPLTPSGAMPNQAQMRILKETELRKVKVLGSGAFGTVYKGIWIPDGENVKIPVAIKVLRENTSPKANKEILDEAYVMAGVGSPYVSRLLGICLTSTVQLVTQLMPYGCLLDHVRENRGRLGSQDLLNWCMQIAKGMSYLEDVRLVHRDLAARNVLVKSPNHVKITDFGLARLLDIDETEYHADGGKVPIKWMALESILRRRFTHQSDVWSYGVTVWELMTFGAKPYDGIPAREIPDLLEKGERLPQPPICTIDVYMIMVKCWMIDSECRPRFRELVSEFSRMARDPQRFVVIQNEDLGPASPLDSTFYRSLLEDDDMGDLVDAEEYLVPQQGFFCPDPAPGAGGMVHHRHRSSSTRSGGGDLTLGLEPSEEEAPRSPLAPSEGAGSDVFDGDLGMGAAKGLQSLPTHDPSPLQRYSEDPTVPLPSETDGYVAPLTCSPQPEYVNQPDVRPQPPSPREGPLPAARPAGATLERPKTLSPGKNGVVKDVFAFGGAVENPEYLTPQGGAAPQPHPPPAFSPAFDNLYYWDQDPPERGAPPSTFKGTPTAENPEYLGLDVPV
T3 sequence (P00533 25-1210): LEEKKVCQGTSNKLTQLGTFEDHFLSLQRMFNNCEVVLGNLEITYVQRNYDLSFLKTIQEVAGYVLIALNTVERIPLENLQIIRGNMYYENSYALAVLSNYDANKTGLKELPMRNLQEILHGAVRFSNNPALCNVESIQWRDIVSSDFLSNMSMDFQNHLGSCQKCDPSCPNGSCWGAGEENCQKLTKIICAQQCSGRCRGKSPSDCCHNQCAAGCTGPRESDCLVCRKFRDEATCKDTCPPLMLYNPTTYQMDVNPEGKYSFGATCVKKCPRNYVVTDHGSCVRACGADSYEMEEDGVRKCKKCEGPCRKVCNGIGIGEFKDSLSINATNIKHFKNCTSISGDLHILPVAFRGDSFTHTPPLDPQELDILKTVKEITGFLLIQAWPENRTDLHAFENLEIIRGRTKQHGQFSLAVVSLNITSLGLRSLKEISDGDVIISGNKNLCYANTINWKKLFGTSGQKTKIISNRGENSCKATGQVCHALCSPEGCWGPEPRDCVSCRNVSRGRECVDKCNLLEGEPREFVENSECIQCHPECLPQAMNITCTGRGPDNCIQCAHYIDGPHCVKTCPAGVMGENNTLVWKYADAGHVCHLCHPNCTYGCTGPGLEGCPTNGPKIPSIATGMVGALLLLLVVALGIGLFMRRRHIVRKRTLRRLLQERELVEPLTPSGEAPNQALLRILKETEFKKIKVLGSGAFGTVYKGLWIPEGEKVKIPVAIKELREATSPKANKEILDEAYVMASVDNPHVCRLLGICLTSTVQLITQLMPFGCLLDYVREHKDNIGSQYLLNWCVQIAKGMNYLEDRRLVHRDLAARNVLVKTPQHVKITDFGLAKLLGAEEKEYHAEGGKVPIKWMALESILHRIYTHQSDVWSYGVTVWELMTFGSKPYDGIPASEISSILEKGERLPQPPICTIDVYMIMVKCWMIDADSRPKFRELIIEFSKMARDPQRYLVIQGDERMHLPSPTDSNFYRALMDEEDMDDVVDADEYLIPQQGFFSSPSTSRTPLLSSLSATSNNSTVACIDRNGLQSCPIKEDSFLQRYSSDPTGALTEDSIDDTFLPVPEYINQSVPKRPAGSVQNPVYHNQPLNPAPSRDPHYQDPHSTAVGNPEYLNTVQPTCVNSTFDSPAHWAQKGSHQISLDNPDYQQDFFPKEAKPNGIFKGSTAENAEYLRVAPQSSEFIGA
T6 sequence (P12931 whole entry): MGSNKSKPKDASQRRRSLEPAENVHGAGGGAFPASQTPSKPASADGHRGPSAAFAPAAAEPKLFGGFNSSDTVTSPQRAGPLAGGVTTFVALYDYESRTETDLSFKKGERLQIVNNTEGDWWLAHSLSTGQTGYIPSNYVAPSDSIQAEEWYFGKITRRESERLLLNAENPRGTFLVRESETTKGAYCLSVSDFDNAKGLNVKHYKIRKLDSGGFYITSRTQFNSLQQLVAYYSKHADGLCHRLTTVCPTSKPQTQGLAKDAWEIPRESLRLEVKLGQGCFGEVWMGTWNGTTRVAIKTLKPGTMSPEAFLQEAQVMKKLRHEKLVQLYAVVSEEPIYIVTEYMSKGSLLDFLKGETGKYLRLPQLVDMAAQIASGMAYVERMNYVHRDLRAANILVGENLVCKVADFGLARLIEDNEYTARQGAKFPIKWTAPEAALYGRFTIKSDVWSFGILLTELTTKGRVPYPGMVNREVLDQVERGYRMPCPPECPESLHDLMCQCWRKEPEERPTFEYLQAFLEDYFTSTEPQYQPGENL

| Compound | IC50 (HepG2) | IC50 (Caco-2) | IC50 (HCT-116; [1]) | IC50 (MCF-7; [2]) | melting point | also measured |
| --- | --- | --- | --- | --- | --- | --- |
| CC(C)Cc1ccc(C(C)C(=O)Sc2ccccc2)cc1 (stereo not drawn) [1a, S-phenyl-2–(4-isobutylphenyl)propanethioate] | 85.1 ± 4.53 µM | 94.8 ± 4.92 µM | 89.6 ± 4.68 µM | 80.4 ± 4.58 µM |  |  |
| CC(C)Cc1ccc(C(C)C(=O)SC2CCCCC2)cc1 (stereo not drawn) [1b, S-cyclohexyl-2–(4-isobutylphenyl)propanethioate] | > 100 µM | > 100 µM | 97.6 ± 5.12 µM | > 100 µM |  |  |
| CC(C(=O)Sc1ccccc1)c1cccc(C(=O)c2ccccc2)c1 (stereo not drawn) [2a, S-phenyl-2–(3-benzoylphenyl)propanethioate] | 59.8 ± 3.55 µM | 72.2 ± 4.06 µM |  |  | 96 to 98 °C | IC50 (HCT-116; read-out: IC50 (μM) HCT-116, human colon cancer cell line, MTT, mean ± SD, n = 3): 61.3 ± 3.97 µM; IC50 (MCF-7; [3]): 48.1 ± 3.15 µM |
| CC(C(=O)SC1CCCCC1)c1cccc(C(=O)c2ccccc2)c1 (stereo not drawn) [2b, S-cyclohexyl-2–(3-benzoylphenyl)propanethioate] | 9.36 ± 0.79 µM | 21.7 ± 1.9 µM | 18.7 ± 1.5 µM | 11.9 ± 1.13 µM | 69 to 70 °C | inhibition at 10 µM (HER2): 1%; IC50 (COX-1): > 50 µM; inhibition at 10 µM (EGFR): 0%; inhibition at 10 µM (HER4): 5%; IC50 (COX-2): 0.66 ± 0.052 µM; SI, selectivity index (COX-1 IC50/COX-2 IC50) (COX-2): >75.8; inhibition at 10 µM (cSrc): 4% |
| CC(C(=O)Sc1ccccc1)c1ccc(-c2ccccc2)c(F)c1 (stereo not drawn) [3a, S-phenyl-2–(2-fluoro-[1,1′-biphenyl]-4-yl)propanethioate] | 68.8 ± 3.87 µM | 76.5 ± 4.38 µM | 78.1 ± 4.08 µM | 63.6 ± 3.62 µM | 85 to 86 °C |  |
| CC(C(=O)SC1CCCCC1)c1ccc(-c2ccccc2)c(F)c1 (stereo not drawn) [3b, S-cyclohexyl-2–(2-fluoro-[1,1′-biphenyl]-4-yl)propanethioate] | 10.5 ± 0.98 µM | 26.8 ± 2.17 µM | 23.8 ± 1.8 µM | 13.7 ± 1.19 µM | 90 to 92 °C | inhibition at 10 µM (HER2): 0%; IC50 (COX-1): > 50 µM; inhibition at 10 µM (EGFR): 0%; inhibition at 10 µM (HER4): 3%; IC50 (COX-2): 0.69 ± 0.057 µM; SI, selectivity index (COX-1 IC50/COX-2 IC50) (COX-2): >72.5; inhibition at 10 µM (cSrc): 3% |
| CC(=O)Oc1ccccc1C(=O)Sc1ccccc1 [4a, 2-[(Phenylthio)carbonyl]phenyl acetate] | 71.1 ± 4.11 µM | 80.2 ± 4.5 µM | 85.4 ± 4.57 µM | 73.7 ± 3.92 µM | 72 to 73 °C |  |
| CC(=O)Oc1ccccc1C(=O)SC1CCCCC1 [4b, 2-[(Cyclohexylthio)carbonyl]phenyl acetate] | 63.6 ± 3.91 µM | 68.8 ± 3.79 µM | 76.5 ± 4.22 µM | 46.5 ± 2.84 µM | 55 to 56 °C |  |
| O=c1[nH]cc(F)c(=O)[nH]1 [5-FU, 5-Fluorouracil, reference compound] | 7.91 ± 0.28 µM | 6.85 ± 0.34 µM | 5.32 ± 0.17 µM | 5.43 ± 0.2 µM |  |  |
| COc1ccc2cc(C(C)C(=O)Sc3ccccc3)ccc2c1 [5a, S-phenyl-(S)-2–(6-methoxynaphthalen-2-yl)propanethioate] | 36.8 ± 2.7 µM | 63.8 ± 3.58 µM | 51.2 ± 3.71 µM | 42.6 ± 2.67 µM | 115 to 117 °C |  |
| COc1ccc2cc(C(C)C(=O)SC3CCCCC3)ccc2c1 [5b, S-cyclohexyl-(S)-2–(6-methoxynaphthalen-2-yl)propanethioate] | 19.7 ± 1.57 µM | 35.6 ± 2.62 µM | 39.5 ± 2.61 µM | 28.9 ± 1.58 µM | 105 to 106 °C |  |
| O=C(Cc1ccccc1Nc1c(Cl)cccc1Cl)SC1CCCCC1 [6b, S-cyclohexyl-2–(2-((2,6-dichlorophenyl)amino)phenyl)ethanethioate] | > 100 µM | > 100 µM | 91.2 ± 4.96 µM |  | 88 to 90 °C | IC50 (MCF-7; [3]): 95.3 ± 4.96 µM |
| CC1=C(CC(=O)Sc2ccccc2)c2cc(F)ccc2C1=Cc1ccc([S+](C)[O-])cc1 (stereo not drawn) [8a, S-phenyl-2–(5-fluoro-2-methyl-1–(4-(methylsulfinyl)benzylidene)-1H-inden-3-yl)ethanethioate] | 7.35 ± 0.34 µM | 15.4 ± 1.37 µM | 9.73 ± 0.85 µM | 8.62 ± 0.72 µM |  | inhibition at 10 µM (HER2): 0%; IC50 (COX-1): > 50 µM; inhibition at 10 µM (EGFR): 6%; inhibition at 10 µM (HER4): 10%; IC50 (COX-2): 0.2 ± 0.016 µM; SI, selectivity index (COX-1 IC50/COX-2 IC50) (COX-2): >250.0; inhibition at 10 µM (cSrc): 4% |
| CC1=C(CC(=O)SC2CCCCC2)c2cc(F)ccc2C1=Cc1ccc([S+](C)[O-])cc1 (stereo not drawn) [8b, S-cyclohexyl-2–(5-fluoro-2-methyl-1–(4-(methylsulfinyl)benzylidene)-1H-inden-3-yl)ethanethioate] | 22.3 ± 1.96 µM | 43.8 ± 2.96 µM | 46.7 ± 2.93 µM | 34.1 ± 2.07 µM | 121 to 122 °C | IC50 (COX-1): > 50 µM; IC50 (COX-2): 0.6 ± 0.055 µM; SI, selectivity index (COX-1 IC50/COX-2 IC50) (COX-2): >83.3 |
| CN(C)C/C=C/C(=O)Nc1cc2c(Nc3ccc(F)c(Cl)c3)ncnc2cc1O[C@H]1CCOC1 [Afatinib, reference compound] | 5.4 ± 0.25 µM | 7.7 ± 0.57 µM | 6.2 ± 0.67 µM | 7.1 ± 0.49 µM |  |  |
| Cc1ccc(-c2cc(C(F)(F)F)nn2-c2ccc(S(N)(=O)=O)cc2)cc1 [Celecoxib, reference compound] | 25.6 ± 2.3 µM | 42.7 ± 3.1 µM |  |  |  | IC50 (HCT-116; Homo sapiens, HCT-116, read-out: IC50 (μM) HCT-116): 29.5 ± 2.1 µM; IC50 (MCF-7; Homo sapiens, MCF7, read-out: IC50 (μM) MCF-7): 31.3 ± 2.5 µM |
| CN[C@@H]1C[C@H]2O[C@@](C)([C@@H]1OC)n1c3ccccc3c3c4c(c5c6ccccc6n2c5c31)C(=O)NC4 [Staurosporine, reference compound] |  |  |  |  |  | inhibition at 1 µM (cSrc; read-out: % inhibition cSrc): 100% |
